The text below walks through data of patent US20230204569A1, “ANALYSIS DEVICE” (INCYTON GMBH, priority 2020, published 2023).

For data set [1], the system named is Mouse fibroblast L929 cells.
Procedure: A mitochondrial stress test was performed in a device of the present invention. Mouse fibroblast L929 cells were cultivated in the wells of a micro-titer plate at 37° C. and provided with fresh media in time intervals of 20 min.
A measurement cycle involved addition of following compounds at the indicated time points:
t=60 min: Addition of 1 μM oligomycin A
t=140 min: Addition of 1 μM antimycin A and 1 μM rotenone
For data set [2], the system named is L929 mouse fibroblast cells. The data set can be described thus: Toxicology assay: OCR, ECAR and morphology under SLS. Format: cell-based. As to the method: L929 mouse fibroblast cells were investigated under the influence of the reference toxicant sodium lauryl sulfate (SLS). The test settings included 12 h of pretreatment and 12 h of treatment with different concentrations of SLS. Throughout the assay, oxygen consumption and extracellular acidification, as well as morphology based on regular microscope images, were recorded.

Where [3] appears, read: 77.8 μg/ml SLS, first 3 h after SLS addition.

As for `N#CC(C#N)=NNc1ccc(OC(F)(F)F)cc1` [FCCP, carbonyl cyanide p-(trifluoromethoxy) phenylhydrazone], the “Maximum respiration (OCR) as % of the basal respiration” value in data set [1] (0.13 μM and 0.25 μM FCCP added at t=100 min after 1 μM oligomycin A) was determined as 131%. The molecule further gave a reserve capacity in data set [1] (maximum respiration under FCCP minus basal respiration) of 31%.

Take `CCCCCCCCCCCCOS(=O)(=O)[O-].[Na+]` [SLS, sodium lauryl sulfate]: the “outcome after continuation of the treatment (12 h treatment)” value in data set [2] (77.8 μg/ml SLS, continued treatment) is “cell death and a drop in all metabolic values”. Besides, in data set [2] (setting [3]), the “acidification (ECAR)” value is reported as “increases” and the “oxygen uptake (OCR)” value is given as “reduced”. Further, the “OCRs and ECARs dose and time dependence” value in data set [2] (77.8 μg/ml and 778 μg/ml SLS) is “clear dose- and time-dependent reaction”.
